Reference: patent publication US20040192699A1, “Optic nerve protecting agents containing alpha1 receptor blocker as active ingredient” (Santen Pharmaceutical Co., Ltd., priority 2001, published 2004)
Structures can show the parent of a compound that is named as a salt.

How the values were obtained:
[1] = test system: rat fetal retinal nerve cells in culture; assay: Death of rat fetal retinal nerve cells in culture induced by glutamate addition (trypan blue dye exclusion); assay type: cell-based; settings: 10 min, then 1 h drug-free, average
Experimental: (1) The action of the α1 receptor blocker on the death of rat fetal retinal nerve cells in culture as induced by glutamate addition
Retinal cells were taken out of a rat fetus (age of E18 days) and isolated, then cultured in an Eagle's basal culture medium containing 10% bovine fetus serum on a polyethylene imine-coated plastic cover slip for 7 days (37° C., 5% CO2/95% air). On the eighth day and thereafter, the cells were cultured in an Eagle's basal culture medium containing 10% horse serum. On the sixth day of the cultivation, cytosine arabinoside (10 μM) was added to suppress the growth of non-neuronal cells. On the eleventh day of the cultivation, the cells were cultured in a serum-free Eagle's basal culture medium supplemented with glutamate (1 mM) and an a, receptor blocker, for 10 minutes. Then, the cells were transferred to a serum-free Eagle's basic culture medium with no content of glutamate and an α1 receptor blocker, and cultured for one hour. Subsequently, toxicity was determined by the trypan blue dye exclusion method. Specifically, the cells were stained with 1.5% trypan blue solution for 10 minutes, fixed in 10% neutral formalin solution and rinsed with physiological saline. Subsequently, the cells were counted with a phase contrast microscope. The cells stained with trypan blue were defined as dead cells, while the cells never stained were defined as live cells. Based on the rate of the live cells to the total cells (200 or more), the survival rate of the culture cells was determined. A group with the addition of 1 mM glutamate alone and a group with the addition of both 1 mM glutamate and an α1 receptor blocker were defined as “1 mM glutamate single-addition group” and “group of 1 mM glutamate+α1 receptor blocker addition”, respectively. […] At this experiment, bunazosin hydrochloride, prazosin hydrochloride, terazosin hydrochloride and naftopidil hydrochloride were used as such α1 receptor blockers.

[2] = test system: rat fetal retinal nerve cells in culture; assay: Death of rat fetal retinal nerve cells in culture induced by serum elimination (trypan blue dye exclusion; TUNEL method); assay type: cell-based; parameters: dose or concentration left out as unconfirmed; settings: serum elimination + test compound, 24 hours, average
Experimental: (2) The action of the a, receptor blocker on the death of rat fetal retinal nerve cells in culture as induced by serum elimination
Retinal cells were taken out of a rat fetus (age of E18 days) and isolated, then cultured in an Eagle's basal culture medium containing 10% bovine fetus serum on a polylysine-coated glass cover slip for 7 days (37° C., 5% CO2/95% air). On the eighth day and thereafter, the cells were cultured in an Eagle's basal culture medium containing 10% horse serum. On the sixth day of the cultivation, cytosine arabinoside (10 μM) was added to suppress the growth of non-neuronal cells. […] Subsequently, toxicity was determined by the trypan blue dye exclusion method. Specifically, the cells were stained with 1.5% trypan blue solution for 10 minutes, fixed in 10% neutral formalin solution and rinsed with physiological saline. Subsequently, the cells were counted with a phase contrast microscope. […] Based on the rate of the live cells to the total cells (200 or more), the survival rate of the culture cells was determined. Using the TUNEL method, additionally, the TUNEL-positive cells (apoptosis cells) increasing due to the serum elimination and the TUNEL-negative cells (live cells) were counted, to calculate the rate of the TUNEL-positive cells to the total cells. […]

[3] = 1 mM glutamate + 10 μM test compound
[4] = 1 mM glutamate + 0.1 μM test compound

Row | SMILES | Survival rate (%) of retinal nerve cells in culture ([1]; 1 mM glutamate + 1 μM test compound) | Survival rate (%) of retinal nerve cells in culture [1, 3] | Survival rate (%) of retinal nerve cells in culture [1, 4] | Survival rate (%) of retinal nerve cells in culture ([1]; 1 mM glutamate + 0.01 μM test compound) | Rate (%) of TUNEL-positive cells ([2]; TUNEL method) | Survival rate (%) of retinal nerve cells in culture [2] | Survival rate (%) of retinal nerve cells in culture ([1]; 1 mM glutamate + 100 μM test compound)
1 | COc1cc2nc(N3CCN(C(=O)c4ccco4)CC3)nc(N)c2cc1OC [prazosin HCl, prazosin hydrochloride] | 65.2% | 67.1% | – | – | – | – | –
2 | COc1ccccc1N1CCN(CC(O)COc2cccc3ccccc23)CC1 (stereo not shown) [naftopidil HCl, naftopidil hydrochloride] | – | 68.9% | 59.2% | – | – | – | –
3 | COc1cc2nc(N3CCN(C(=O)C4CCCO4)CC3)nc(N)c2cc1OC (stereo not shown) [terazosin HCl, terazosin hydrochloride] | – | – | 70.7% | 69.8% | – | – | –
4 | CCCC(=O)N1CCCN(c2nc(N)c3cc(OC)c(OC)cc3n2)CC1 [bunazosin HCl, bunazosin hydrochloride] | – | 55.2% | – | – | 13% | 80% | 55.9%
